ChEMBL document CHEMBL5724696, “Autophagy assay results for EUbOPEN Chemogenomics Library” (2024)
“And” between values parts separate entries of the source, which are not always exact repeats. Equal values may be shown once.

What was measured:
Format in all cases: functional, Homo sapiens
[1] = test system: U2OS; assay: (§1) Here: values are normalized to the negative (DMSO; defined as 0% autophagy induction) and positive (250nM Torin1; mTOR inhibitor; defined as maximal inducer of autophagy = 100%) control compounds and represented as % of autophagy induction. […] The impact of autophagy induction on cells is complex and depends on the affected target. As such, the magnitude of a phenotype may not be equally mirrored in the %-value of autophagy induction and vice versa. The dynamics of the induction may indicate the mode of activation: e.g. activation via phosphorylation or a signaling cascade may occur fast, while activation via transcription factors may take considerably longer. […] Of note, treatment concentrations may be sub-optimal for specific compounds, leading to false negative annotations.; settings: Culturing Media DMEM, 1 % Penicillin/Streptomycin, 10% Fetal bovin serum Add-On: No, Screening Media Control DMEM, Screening Media Samples DMEM
[2] = test system: TERT-RPE1; assay: as §1; settings: Culturing Media DMEM/F12 (1:1), 1 % Penicillin/Streptomycin, 10% Fetal bovin serum Add-On: No, Screening Media Control DMEM/F12 (1:1), Screening Media Samples DMEM/F12 (1:1)
[3] = test system: U2OS; assay: as §1; settings: Culturing Media DMEM, 1 % Penicillin/Streptomycin, 10% Fetal bovin serum Add-On: No, Screening Media Control DMEM, Screening Media Samples DMEM; remark: listed apart in the source
[4] = Compound Concentration 0.5 uM, Timepoint 12 hours
[5] = Compound Concentration 0.5 uM, Timepoint 24 hours
[6] = Compound Concentration 0.5 uM, Timepoint 36 hours
[7] = Compound Concentration 0.5 uM, Timepoint 60 hours
[8] = Compound Concentration 2 uM, Timepoint 12 hours
[9] = Compound Concentration 2 uM, Timepoint 24 hours
[10] = Compound Concentration 2 uM, Timepoint 36 hours
[11] = Compound Concentration 2 uM, Timepoint 60 hours
[12] = Compound Concentration 10 uM, Timepoint 12 hours
[13] = Compound Concentration 10 uM, Timepoint 24 hours
[14] = Compound Concentration 10 uM, Timepoint 36 hours
[15] = Compound Concentration 10 uM, Timepoint 60 hours
[16] = Compound Concentration 0.5 uM, Timepoint 12 hours, 12 h, 0.5 µM
[17] = Compound Concentration 0.5 uM, Timepoint 24 hours, 24 h, 0.5 µM
[18] = Compound Concentration 0.5 uM, Timepoint 36 hours, 36 h, 0.5 µM
[19] = Compound Concentration 0.5 uM, Timepoint 60 hours, 60 h, 0.5 µM
[20] = Compound Concentration 2 uM, Timepoint 12 hours, 12 h, 2 µM
[21] = Compound Concentration 2 uM, Timepoint 24 hours, 24 h, 2 µM
[22] = Compound Concentration 2 uM, Timepoint 36 hours, 36 h, 2 µM
[23] = Compound Concentration 2 uM, Timepoint 60 hours, 60 h, 2 µM
[24] = Compound Concentration 10 uM, Timepoint 12 hours, 12 h, 10 µM
[25] = Compound Concentration 10 uM, Timepoint 24 hours, 24 h, 10 µM
[26] = Compound Concentration 10 uM, Timepoint 36 hours, 36 h, 10 µM
[27] = Compound Concentration 10 uM, Timepoint 60 hours, 60 h, 10 µM

SMILES | autophagy induction [1, 4] | autophagy induction [1, 5] | autophagy induction [1, 6] | autophagy induction [1, 7] | autophagy induction [1, 8] | autophagy induction [1, 9] | autophagy induction [1, 10] | autophagy induction [1, 11] | autophagy induction [1, 12] | autophagy induction [1, 13] | autophagy induction [1, 14] | autophagy induction [1, 15] | autophagy induction [2, 16] | autophagy induction [2, 17] | autophagy induction [2, 18] | autophagy induction [2, 19] | autophagy induction [2, 20] | autophagy induction [2, 21] | autophagy induction [2, 22] | autophagy induction [2, 23] | other results
FC(F)(F)c1c(N2CCC(c3ccccc3)CC2)ccn2c(CC3CC3)nnc12 | -3.682% | -3.457% | 1345.14% | -2.1724% | -2.443% | -4.21% | -60.9304% | -2.478% | 1.237% | -0.8788% | -59.5065% | -0.8045% | 0.8285% and 1.833% | -1.6355% and 0.4371% | -2.42% and 3.239% | -6.544% and 5.154% | -0.736% and 6.309% | -0.3973% and 6.29% | -4.125% and 5.099% | -2.871% and 7.601% | autophagy induction [2, 24]: 0.02052% and 7.4327%; autophagy induction [2, 25]: -1.251% and 7.807%; autophagy induction [2, 26]: -2.896% and 10.4333%; autophagy induction [2, 27]: -4.9464% and 19.419%; autophagy induction [3, 4]: 6.212%; autophagy induction [3, 5]: 3.779%; autophagy induction [3, 6]: -3.086%; autophagy induction [3, 7]: -2.905%; autophagy induction [3, 8]: -8.584%; autophagy induction [3, 9]: -5.642%; autophagy induction [3, 10]: -3.294%; autophagy induction [3, 11]: -4.323%; autophagy induction [3, 12]: -9.128%; autophagy induction [3, 13]: -9.508%; autophagy induction [3, 14]: -1.15%; autophagy induction [3, 15]: -1.079%
O=C(O)CC1CCC2(CC1)CCN(c1cc(OC(F)(F)F)ccc1Cl)CC2 | 6.893% | 1.231% | -59.5433% | -1.659% | 4.528% | 2.023% | -58.8057% | 0.09301% | 1.476% | -1.647% | -59.8779% | -1.029% | 1.5088% and -4.208% | -1.371% and -2.379% | -4.319% and -4.033% | -5.803% and -6.663% | 7.834% and -3.775% | 2.312% and -6.096% | -2.505% and -8.733% | -5.7463% and -9.633% | autophagy induction [2, 24]: 5.943% and -1.866%; autophagy induction [2, 25]: 5.6585% and -2.656%; autophagy induction [2, 26]: 3.294% and -3.964%; autophagy induction [2, 27]: -1.174% and -1.531%; autophagy induction [3, 4]: -7.253%; autophagy induction [3, 5]: -0.0788%; autophagy induction [3, 6]: -0.8569%; autophagy induction [3, 7]: -4.709%; autophagy induction [3, 8]: -6.392%; autophagy induction [3, 9]: -5.775%; autophagy induction [3, 10]: -5.315%; autophagy induction [3, 11]: -3.59%; autophagy induction [3, 12]: -7.404%; autophagy induction [3, 13]: -7.084%; autophagy induction [3, 14]: -0.9405%; autophagy induction [3, 15]: -11.9422%
